Experimental data from PMC9030166, “Natural Phaeosphaeride A Derivatives Overcome Drug Resistance of Tumor Cells and Modulate Signaling Pathways” (Pharmaceuticals, 2022).

How the values were obtained:
MCF-7 = assay: MTT cytotoxicity, MCF-7 breast cancer cells; assay type: cell-based; conditions: Homo sapiens, MCF7, adhesive tumor culture, 48 h
Text: (§1) Cell cultures used in the work: adhesive cultures HBL-100 cells (cells of a normal mammary gland epithelium, immortalized by the SV40 virus and acquired tumorigenicity); MCF-7 breast cancer cells; PC-3 prostate adenocarcinoma cells; HCT-116 colorectal cancer cells; non-small cell lung cancer cells A549; human embryonic kidney cells HEK293; suspension cultures (NCI-H929 and RPMI8226 multiple myeloma cells), K562 chronic myeloid leukemia cells; THP-1 acute monocytic leukemia cells; and Jurkat acute T-cell leukemia cells. We also used several primary cultures of soft tissue sarcomas at 3–4passeges, kindly provided by T.I. Fetisov (The Ethics Committee of N.N. Blokhin NMRCO, protocol code 18-28-09095 and date of approval 28 September 2018).
(§2) Modifications of cell lines: K562/i-S9 is a clone obtained after transfection of K562 cells with the ABCB1 (MDR1) gene-encoding P-glycoprotein [36]. Cells HBL-100/Dox and K562/i-S9_Dox are cells obtained by long-term selection with increasing concentrations of doxorubicin (Sigma-Aldrich, St. Louis, MO, USA) from HBL-100 and K562/i-S9 cells, respectively. MCF-7, A594 cells, and primary cultures of soft tissue sarcomas were cultured in DMEM medium (PanEko, Russia), PC-3 and HCT-116 cells and all suspension cultures in RPMI1640 medium (PanEko, Russia) supplemented with 10% fetal bovine serum (GE Healthcare LifeSciences, USA), and gentamicin at a concentration of 40 μg/mL at 37 °C and 5% CO2.
(§3) Cells MCF-7, PC-3, A549, and HCT-116, and primary cultures of STSwere seeded in 96-well plates, 6 × 10^3 cells per well in 90 μL of culture medium. Suspension cultures were seeded at a concentration of 25 × 10^3 cells per well in 135 μL of medium. The test substances were dissolved in DMSO (Applichem, Council Bluffs, IA, USA) until a concentration of 1 × 10^−^2 M was obtained; for the subsequent dilution of the substances, a serum-free culture medium was used. The next day, for adhesive cultures, and on the same day, for suspension cultures, substances were added to the plates in a volume of 10 μL (adhesive cultures) and 15 μL (suspension cultures) per well at various concentrations; each concentration was added in 3–4 repetitions. The cells were cultured in the presence of substances for 48 h. Then, MTT reagent (PanEko, Moscow, Russia) was added to the wells at a concentration of 5 mg/mL in a volume of 20 μL per well. After 1.5–2 h, the medium with the reagent was removed, and the precipitate of the crystals of formazan was dissolved in 60 μL of DMSO. The optical density was determined using a Multiskan FC spectrophotometer (Thermo Scientific, Waltham, MA, USA) at a wavelength of 540 nm.
(§4) Based on the results of the experiments, a schedule was plotted of the dependence of the percentage of surviving cells (from control) on the concentration of the compound, and the sought concentration IC50 was calculated. The experiments were carried out in 3–4 times.

A549 = assay: MTT cytotoxicity, A549 non-small cell lung cancer cells; assay type: cell-based, human; conditions: 48 h; for IC50: Homo sapiens, A549, adhesive tumor culture
Text: as §1, §2, §3, §4

[1] = test system: CMT № 3 (Epithelial Sarcoma (Metastasis)); assay: MTT cytotoxicity, primary culture of soft tissue sarcoma CMT № 3; assay type: cell-based; conditions: Homo sapiens, 48 h
Text: It is believed that such cultures have a molecular profile that corresponds more with cells from the human body, in comparison with that of stable cultures of tumor cells (Table 3).
as §1, §2
as §3, with “Then, MTT reagent (PanEko, Moscow, Russia) was added to the wells at a concentration of 5 mg/mL in a volume of 20 μL per well. After 1.5–2 h, the medium with the reagent was removed, and the precipitate of the crystals of formazan was dissolved in 60 μL of DMSO.” left out
Based on the results of the experiments, a schedule was plotted of the dependence of the percentage of surviving cells (from control) on the concentration of the compound, and the sought concentration IC50 was calculated. […]

A431 cells = assay: IC50 on A431 cells (xCelligence RTCA cell index); assay type: cell-based; conditions: Homo sapiens, A-431
Text: A431 cells are characterized by a high inducibility of transcription factors STAT3 and STAT5. In turn, phaeosphaeride A and its derivatives are probably inhibitors of the STAT3 gene. Therefore, the A431 cell line was chosen as a model for searching for possible targets for the action of phaeosphaeride A derivatives. Table 7 presents IC50 data for phaeosphaeride A derivatives on A431 cells.
(§5) The effect of various concentrations of PPA derivatives on the cell culture was studied using xCelligence RTCA equipment (AceaBioscience, San Diego, CA, USA). The concentration closest to the IC50 (10 μM) was chosen as the experimental concentration. The selected concentration of phaeosphaeride A derivatives allows for the assessment of the early effect of compounds on cells and compares their effectiveness. In this experiment, the signaling pathways Akt (pSer473), p70S6K (pThr412), NFkB (p65-pSer536), and CREB (pSer133) were not activated (Table 8). The stress-activated signaling pathways ERK/MAP kinase 1/2 (pThr185/pTyr187), JNK (pThr183/pTyr185), and p38 (pThr180/pTyr182) were activated for these compounds.
To determine the integral cellular response using the xCelligence RTCA equipment (AceaBioscience, Santa Clara, CA, USA), 20 thousand cells were inoculated into a well of a specialized plate allowing the determination of the cell index in real time and cultured in complete growth medium. The next day after the seeding, the medium was replaced with an experimental one (compounds at concentrations of […]). The cell index was monitored for 3 days after the addition of the xenobiotic. The concentration closest to the IC50 (10 μM) was chosen as the experimental concentration.

[2] = test system: ERK 1/2 (pThr185/pTyr187); assay: MILLIPLEX MAP 9-Plex, ERK 1/2 active form in A431 lysates; assay type: cell-based, human; conditions: 10 μM; for ERK ½ (pThr185/pTyr187) fluorescence intensity: A431 cell lysates, 1 h, M ± mx, control 839.7 ± 248.9; for activation of signaling pathway ERK/MAP kinase 1/2 (pThr185/pTyr187), in words: A431 cells
Text: (§6) We used the MILLIPLEX MAP Multi-Pathway Magnetic Bead 9-Plex-Cell Signaling Multiplex Assay, which allows the simultaneous detection of nine phosphorylated proteins that are markers of the main intracellular signaling pathways (phosphorylation site is indicated in parentheses), a universal transcription factor that controls the expression of immune response genes; apoptosis and cell cycle NFκB (pS536); cAMP-dependent transcription factor (CREB (pS133); mitogen-activated kinase p38 (pT180/pY182); stress-activated protein kinase JNK (pT183/pY185); ribosomal […]; transcription factors STAT3 (pS727) and STAT5A/B (pY694/699); protein kinase B (Akt) (pS473); and kinase regulated by extracellular signals ERK1/2 (pT185/pY187).
as §5
(§7) We used a MILLIPLEX MAP Multi-Pathway Magnetic Bead 9-Plex-Cell Signaling Multiplex Assay kit (Merck/Millipore), according to the manufacturer’s protocol. A431 cells were cultured in DMEM with 10% FBS in 24-well plates. Compounds were added to the subconfluent cells at a concentration of 10 μM in DMEM medium for 1 h. Each compound was added in 5 experimental repeats. Cell lysates were prepared with lysis buffer (Millipore) with protease inhibitors (Complete, Roche); the protein concentration in the lysates was determined by the Lowry method. In samples equalized in protein concentration, the active forms of kinase cascades were determined using a Bio-Plex 200 fluorescent analyzer (Bio-Rad).

p38 (pThr180/pTyr182) = assay: MILLIPLEX MAP 9-Plex, p38 active form in A431 lysates; assay type: cell-based, human; conditions: 10 μM; for p38 (pThr180/pTyr182) fluorescence intensity: A431 cell lysates, M ± mx, control 567.7 ± 266.6; for p38 (pThr180/pTyr182) fluorescence intensity / increase of fluorescence intensity of the active form p38: 1 h; for increase of fluorescence intensity of the active form p38 / activation of signaling pathway p38 (pThr180/pTyr182), in words: A431 cells; for increase of fluorescence intensity of the active form p38: versus control
Text: as §6, §5, §7

## C=C1C2=C(C(=O)N1OC)[C@@H](N1CCCC1)[C@@](C)(O)[C@H](CCCCC)O2 [Compound 1]
MCF-7
  IC50: 3.9 ± 0.8 µM
A549
  IC50: 14 ± 0.1 µM
[1]
  IC50: 4.8 ± 0.9 µM
A431 cells
  IC50: 3.7 µM
[2]
  ERK ½ (pThr185/pTyr187) fluorescence intensity: 4650.1 ± 509.0 *↑ rel. units
p38 (pThr180/pTyr182)
  p38 (pThr180/pTyr182) fluorescence intensity: 2349.9 ± 755.5 rel. units
  increase of fluorescence intensity of the active form p38: 1.5–3 times

## C=C1C2=C(C(=O)N1OC)[C@@H](N(C)C)[C@@](C)(O)[C@H](CCCCC)O2 [Compound 2, (2S,3R,4R)-4-(dimethylamino)-3-hydroxy-6-methoxy-3-methyl-7-methylene-2-pentyl-3,4,6,7-tetrahydropyrano[2,3-c]pyrrol-5(2H)-one]
MCF-7
  IC50: 3 ± 0.8 µM
A549
  IC50: 9.6 ± 2.1 µM
[1]
  IC50: 7.8 ± 0.6 µM
A431 cells
  IC50: 1.9 µM
[2]
  ERK ½ (pThr185/pTyr187) fluorescence intensity: 5074.6 ± 770.1 *↑ rel. units
  activation of signaling pathway ERK/MAP kinase 1/2 (pThr185/pTyr187), in words: maximum degree of activation
p38 (pThr180/pTyr182)
  p38 (pThr180/pTyr182) fluorescence intensity: 2795.4 ± 572.0 *↑ rel. units
  activation of signaling pathway p38 (pThr180/pTyr182), in words: maximum degree of activation
  increase of fluorescence intensity of the active form p38: 1.5–3 times

## C=C1C2=C(C(=O)N1OC)[C@@H](N(CCCC)CCCC)[C@@](C)(O)[C@H](CCCCC)O2 [Compound 5, (2S,3R,4R)-4-(dibutylamino)-3-hydroxy-6-methoxy-3-methyl-7-methylene-2-pentyl-3,4,6,7-tetrahydropyrano[2,3-c]pyrrol-5(2H)-one]
MCF-7
  IC50: 7.4 ± 0.5 µM
A549
  IC50: 23.4 ± 2.3 µM
A431 cells
  IC50: > 50 µM
[2]
  ERK ½ (pThr185/pTyr187) fluorescence intensity: 1880.4 ± 81.7 *↑ rel. units
  activation of signaling pathway ERK/MAP kinase 1/2 (pThr185/pTyr187), in words: only slightly activated
p38 (pThr180/pTyr182)
  p38 (pThr180/pTyr182) fluorescence intensity: 1245.9 ± 342.8 rel. units
  activation of signaling pathway p38 (pThr180/pTyr182), in words: only slightly activated

## C=C1C2=C(C(=O)N1OC)[C@@H](N(CC)CCO)[C@@](C)(O)[C@H](CCCCC)O2 [Compound 9, (2S,3R,4R)-4-[ethyl(2-hydroxyethyl)amino]-3-hydroxy-6-methoxy-3-methyl-7-methylene-2-pentyl-3,4,6,7-tetrahydropyrano[2,3-c]pyrrol-5(2H)-one]
MCF-7
  IC50: 2.9 ± 1 µM
A549
  IC50: 8.9 ± 0.2 µM
[1]
  IC50: 13 ± 0.9 µM
A431 cells
  IC50: 4.6 µM
[2]
  ERK ½ (pThr185/pTyr187) fluorescence intensity: 3276.9 ± 700.0 *↑ rel. units
p38 (pThr180/pTyr182)
  p38 (pThr180/pTyr182) fluorescence intensity: 657.1 ± 287.5 rel. units
  increase of fluorescence intensity of the active form p38: 1.5–3 times

## CCCCC[C@@H]1OC2=C(C(=O)N(OC)/C2=C\n2cnnc2)C(n2cnnc2)[C@@]1(C)O (stereo partly shown) [Compound 10]
MCF-7
  IC50: 49 ± 5.3 µM
A549; adhesive tumor culture
  IC50 value, A549: not active
A431 cells
  IC50: > 50 µM
[2]
  ERK ½ (pThr185/pTyr187) fluorescence intensity: 1864.9 ± 149.5 *↑ rel. units
  activation of signaling pathway ERK/MAP kinase 1/2 (pThr185/pTyr187), in words: only slightly activated
p38 (pThr180/pTyr182)
  p38 (pThr180/pTyr182) fluorescence intensity: 1783.6 ± 181.9 *↑ rel. units
  activation of signaling pathway p38 (pThr180/pTyr182), in words: only slightly activated
